The source of these data is patent US6458815B2, “Sulfonamide compounds and methods of treating atherosclerosis and restenosis” (Warner-Lambert Company, priority 1998, dated 2002).

Series [1] relates to Lp(a) production in HepG2^K17 cells. Description: LPA3 screen: inhibition of Lp(a) production in transfected HepG2 cells, Lp(a) in media by ELISA. Conditions: Homo sapiens, 8 hours incubation, 0.3 to 50 μM compound, Lp(a) normalized for total protein. It is filed as cell-based. The procedure: The LPA3 screen is used to identify compounds that inhibit Lp(a) production. This screen employs permanently transfected HepG2 cells (HepG2^K17) that are generated using an apo(a) 17-kringle cDNA expression construct (pcDNA-AMP, In Vitrogen, Carlsbad, Calif.) in accordance with methods that are well-known in molecular biology.
HepG2^K17 cells are seeded in 96-well plates at a density of 75,000 cells per well in 0.25 mL of Dulbecco's Modified Eagle Media (DMEM) containing 10% fetal bovine serum (FBS). Seeded plates are incubated overnight in a 37° C., 5% CO2/95% O2 incubator. The media is removed, replaced with (1) fresh media, or (2) fresh media plus 0.3 to 50 μM of a compound of the present invention in 20 μL of PBS, and the plates returned to the incubator for 8 hours. After the additional 8 hours of incubation, Lp(a) is assayed in the media by ELISA. Cells are digested with 0.5N NaOH overnight and assayed for total protein. Lp(a) values are normalized for total protein content.
For orientation: An ELISA detects its analyte on a solid surface through an enzyme-linked reagent.

Series [2] has as its target apolipoprotein(a), [apo(a)], apolipoproteinB-100, [apoB-100], coupling reaction that generates Lp(a) (Homo sapiens, UniProt P04114+P08519). Description: LPABC screen: lipoprotein(a) biochemical coupling assay, Lp(a) content by ELISA. The note with it: recombinant apo(a) 17-kringle (293 cell conditioned media) + HepG2 conditioned media, 67 minutes at 37° C., 0.3 to 50 μM compound. The procedure: The lipoprotein(a), [Lp(a)], biochemical coupling assay (LPABC) is used to characterize inhibitors of the apolipoprotein(a), [apo(a)], apolipoproteinB-100, [apoB-100], coupling reaction that generates Lp(a). Conditioned media from 293 cells (ATCC CRL-1573), permanently transfected with an apo(a) 17-kringle cDNA expression construct (pcDNA-AMP, In Vitrogen, Carlsbad, Calif.) using standard molecular biology techniques, was used as a source of recombinant apo(a) is diluted 1:3 with phosphate buffered saline (PBS) and 90 μL is pipetted into each well of a 96-well plate and placed into 37° C. incubator for 10 minutes. Twenty microliters of a 0.3 to 50 μM solution of a compound of the present invention in PBS is added to the warmed plate. Ninety microliters of HepG2 (ATCC HB-8065) cell conditioned media diluted 1:3 with PBS is added to the apo(a)/compound mixture and mixed by pipetting up and down 5 times. The reaction is incubated for 67 minutes in a 37° C. incubator. A 100 μL aliquot of the reaction is removed and assayed for its Lp(a) content by an enzyme linked immunosorbent assay (ELISA).

As usually defined, the melting point is the temperature of the solid-liquid transition. As a reminder, the IC50 is the concentration that inhibits the measured activity by half. `CC(C)(C)c1cc(CN(c2cccnc2)S(=O)(=O)c2ccccc2)cc(C(C)(C)C)c1O` [Example 11, N-(3,5-Di-tert-butyl-4-hydroxy-benzyl)-3-N-pyridin-3-yl-benzenesulfonamide] came in with a melting point of 143 to 145 °C. Also, half-maximal inhibition in series [1] (IC50) was put at 16.2 µM. In addition, the IC50 in series [2] was determined as 4.12 µM.
The compound `CC(C)(C)c1cc(CN(c2cccnc2)S(=O)(=O)c2cccc(Br)c2)cc(C(C)(C)C)c1O` [Example 19, N-(3,5-di-tert-butyl-4-hydroxybenzyl)-3-bromo-N-pyridin-3-yl-benzenesulfonamide] came in with a melting point of 129 to 131 °C. In addition, the IC50 in series [2] turned out to be 2.76 µM.
With `COc1ccc(N(Cc2cc(C(C)(C)C)c(O)c(C(C)(C)C)c2)S(=O)(=O)c2cccs2)cn1` [Example 6, Thiophene-2-sulfonic Acid (3,5-di-tert-butyl-4-hydroxy-benzyl)-6-methoxy-pyridin-3-yl-amide], the IC50 in series [2] was determined as 3.15 µM.
On the same count and under the same terms, the same measure for `CC(C)(C)c1cc(CN(c2cccnc2)S(=O)(=O)c2ccc(-c3ccccn3)s2)cc(C(C)(C)C)c1O` [Example 1, 5-Pyridin-2-yl-thiophene-2-sulfonic Acid (3,5-di-tert-butyl-4-hydroxy-benzyl)-pyridin-3-yl-amide]: 1.66 µM.
`CC(C)(C)c1cc(CN(c2cccnc2)S(=O)(=O)c2ccc([N+](=O)[O-])cc2)cc(C(C)(C)C)c1O` [Example 5, N-(3,5-Di-tert-butyl-4-hydroxy-benzyl)-4-nitro-N-pyridin-3-yl-benzenesulfonamide] came in with a melting point of 159 to 160 °C. This compound also yielded an IC50 in series [1] of 9.4 µM. Besides, the IC50 in series [2] amounted to 2.6 µM.
`CC(C)(C)c1cc(CN(c2cccnc2)S(=O)(=O)c2ccc(F)cc2)cc(C(C)(C)C)c1O` [Example 4, N-(3,5-Di-tert-butyl-4-hydroxy-benzyl)-4-fluoro-N-pyridin-3-yl-benzenesulfonamide]: the IC50 in series [1] was 7.5 µM; in series [2] it was 2.6 µM.
On to `Cc1ccc(S(=O)(=O)N(Cc2cc(C(C)(C)C)c(O)c(C(C)(C)C)c2)c2cccnc2)cc1` [Example 3, N-(3,5-Di-tert-butyl-4-hydroxy-benzyl)-4-methyl-N-pyridin-3-yl-benzenesulfonamide], for which the melting point was in the range of 121 to 123 °C. The compound also had an IC50 in series [1] of 6.9 µM. Moreover, the IC50 in series [2] stood at 3.94 µM.
As to `COc1ccc(N(Cc2cc(C(C)(C)C)c(O)c(C(C)(C)C)c2)S(=O)(=O)c2ccc(C)cc2)cn1` [Example 18, N-(3,5-di-tert-butyl-4-hydroxy-benzyl)-N-(6-methoxy-pyridin-3-yl)-4methyl-benzenesulfonamide], the melting point lay in the range of 127 to 129 °C. In series [2], the half-inhibitory concentration (IC50) is 2.42 µM.
`CC(C)(C)c1cc(CN(c2cccnc2)S(=O)(=O)c2cccs2)cc(C(C)(C)C)c1O` [Example 7, Thiophene-2-sulfonic Acid (3,5-di-tert-butyl-4-hydroxy-benzyl)-pyridin-3-yl-amide] gave a melting point of 118 to 120 °C. For the same compound, the IC50 in series [1] was found to be 8.9 µM. Also, the IC50 in series [2] came to 3.5 µM.
On to `Cc1ccc(S(=O)(=O)N(Cc2cc(C(C)(C)C)c(O)c(C(C)(C)C)c2)c2cccnc2Cl)cc1` [Example 14, N-(2-Chloro-pyridin-3-yl)-N-(3,5-di-tert-butyl-4-hydroxy-benzyl)-4-methyl-benzenesulfonamide], for which the melting point was in the range of 117 to 119 °C. Besides, the IC50 in series [2] stood at 2.1 µM.
With `CCOC(=O)C(c1cc(C(C)(C)C)c(O)c(C(C)(C)C)c1)N(CC1CCCCC1)S(C)(=O)=O` (stereo not drawn) [Example 2, (Cyclohexylmethyl-methanesulfonyl-amino)-(3,5-Di-tert-butyl-4-hydroxy-phenyl)-acetic Acid Ethyl Ester], the IC50 in series [1] was 27.2 µM; in series [2], 1.92 µM.
For `CC(=O)Nc1ccc(S(=O)(=O)N(Cc2cc(C(C)(C)C)c(O)c(C(C)(C)C)c2)c2cccnc2)cc1` [Example 8, N-(3,5-Di-tert-butyl-4-hydroxy-benzyl)-4-acetamido-N-pyridin-3-yl-benzenesulfonamide], the melting point lay within 167 to 169 °C. For the same compound, half-maximal inhibition in series [1] (IC50) was put at 12.5 µM. Besides, the IC50 in series [2] was found to be 3.5 µM.
For `CC(C)(C)c1ccc(S(=O)(=O)N(Cc2cc(C(C)(C)C)c(O)c(C(C)(C)C)c2)c2cccnc2)cc1` [Example 13, N-(3,5-Di-tert-butyl-4-hydroxy-benzyl)-4-tert-butyl-N-pyridin-3-yl-benzenesulfonamide] the same measures were 155 to 156 °C, 23.6 µM and 11.8 µM.
For `CC(C)(C)c1cc(CN(c2cccnc2)S(=O)(=O)c2cccc([N+](=O)[O-])c2)cc(C(C)(C)C)c1O` [Example 10, N-(3,5-Di-tert-butyl-4-hydroxy-benzyl)-3-nitro-N-pyridin-3-yl-benzenesulfonamide] the same measures were 99 to 107 °C, 7.4 µM and 4 µM.
Compound `COc1ccc(S(=O)(=O)N(Cc2cc(C(C)(C)C)c(O)c(C(C)(C)C)c2)c2cccnc2)cc1` [Example 9, N-(3,5-Di-tert-butyl-4-hydroxy-benzyl)-4-methoxy-N-pyridin-3-yl-benzene Sulfonamide] yielded a melting point of 142 to 143 °C. This compound also displayed an IC50 in series [1] of 5.8 µM. Moreover, the IC50 in series [2] is 3.7 µM.
For `CC(C)(C)c1cc(CN(c2cccnc2)S(C)(=O)=O)cc(C(C)(C)C)c1O` [Example 12, N-(3,5-Di-tert-butyl-4-hydroxy-benzyl)-N-pyridin-3-yl-methanesulfonamide] the same measures were 133 to 134 °C, 41.2 µM and 5.58 µM.
In turn, `Cc1ccc(S(=O)(=O)N(Cc2cc(C(C)(C)C)c(O)c(C(C)(C)C)c2)c2ccc(Cl)nc2)cc1` [Example 16, N-(6-Chloro-pyridin-3-yl)-N-(3,5-di-tert-butyl-4-hydroxybenzyl)-4-methyl-benzenesulfonamide] displayed a melting point of 152 to 153 °C. The IC50 in series [2] came to 2.1 µM.
The matching figures for `CC(C)(C)c1cc(CN(c2cccnc2)S(=O)(=O)c2ccc3ccccc3c2)cc(C(C)(C)C)c1O` [Example 17, N-(3,5-di-tert-butyl-4-hydroxybenzyl)-2-naphthalene-N-pyridin-3-yl-sulfonamide]: 160 to 171 °C and 7.1 µM.
Take `CC(C)(C)c1cc(CN(c2cccnc2)S(=O)(=O)c2ccccc2Br)cc(C(C)(C)C)c1O` [Example 15, N-(3,5-di-tert-butyl-4-hydroxybenzyl)-2-bromo-N-pyridin-3-yl-benzenesulfonamide]: the melting point was in the range of 105 to 107 °C. Also, the IC50 in series [2] was 2.43 µM.
